Experiments:
[1] = system: RAW264.7; assay: Antiinflammatory activity against mouse RAW264.7 cells assessed as inhibition of LPS-induced IL-6 secretion after 24 hrs by ELISA; format: functional, cell-based; conditions: RAW264.7, 24 h
[2] = system: RAW264.7; assay: Antiinflammatory activity against mouse RAW264.7 cells assessed as inhibition of LPS-induced NO production incubated for 24 hrs by Griess reagent-based assay; format: functional, cell-based; conditions: RAW264.7, 24 h
[3] = system: RAW264.7; assay: Cytotoxicity against mouse RAW264.7 cells assessed as reduction in cell viability at 50 uM by MTT assay; format: cell-based; conditions: raw264.7, 50 µM
[4] = system: RAW264.7; assay: Antiinflammatory activity against mouse RAW264.7 cells assessed as inhibition of LPS-induced TNF-alpha secretion after 24 hrs by ELISA; format: functional, cell-based; conditions: RAW264.7, 24 h

Row | Structure (SMILES) | IC50 [1] [µM] | IC50 [2] [µM] | IC50 [4] [µM] | Activity [3]
1 | COc1ccc([C@H](/C=C/c2ccc(O)cc2)c2cc(-c3coc4cc(OC)cc(O)c4c3=O)c(O)cc2O)c(OC)c1 | > 50 | 25.7 | 11.4 | Non-Toxic
2 | C[C@@H]1C[C@H]2[C@@H]3CCC4=CC(=O)C=C[C@]4(C)[C@@]3(F)[C@@H](O)C[C@]2(C)[C@@]1(O)C(=O)CO [DEXAMETHASONE] | 8.4 | 6 | 6.1 | 
3 | C[C@H]1[C@H](C)CC[C@]2(C=O)CC[C@]3(C)C(=CC[C@@H]4[C@@]5(C)CC[C@H](O)C(C)(C)[C@@H]5CC[C@]43C)[C@H]12 [OLEANOALDEHYDE] |  | 18.6 |  | Non-Toxic
4 | COc1ccc2c(c1)O[C@@H](c1ccc(OC)cc1OC)[C@H](Cc1ccc(O)cc1)[C@H]2/C=C/c1ccc(O)cc1 | 31.4 | 25.6 | 26.7 | Non-Toxic

Stronger by IC50 [2], values ahead:

Row | IC50 [1] [µM] | IC50 [2] [µM] | IC50 [4] [µM] | Structure (SMILES) | Activity [3]
5 | 26.8 | 5.2 | 14.7 | COc1ccc2c(c1)O[C@@]1(/C=C/c3ccc(O)cc3)c3ccc(OC)cc3O[C@H]2[C@H]1Cc1ccc(O)cc1 | Non-Toxic
6 | 32.6 | 4.1 | 20.5 | COc1ccc(/C=C/[C@H](c2ccc(O)cc2)c2cc(-c3coc4cc(OC)cc(O)c4c3=O)c(O)cc2O)c(OC)c1 | Non-Toxic
